Measured values as given in patent publication US20030224937A1, “Selective herbicidal composition” (priority 1994, published 2003).

System: Maize
Assay: Preemergence phytotoxic action of the herbicide of formula I and of mixtures of herbicide and safener of formula II on maize
Type: in vivo
Conditions: no safener, 22 days
Description: Preemergence Phytoxic Action of the Herbicide of Formula I and of the Mixtures of Herbicide and Safener of Formula II on Maize
Maize is sown in standard soil in plastic pots. Immediately after sowing, the pots are sprayed with an aqueous suspension of the test substances (500 l of water/ha) prepared from one of the above formulations 1 to 8. The concentration of herbicide of formula I is 4000, 3000 and 2000 g/ha. The safener No. 1.006 is applied in a ratio to the herbicide of 1:18, 1:24 and 1:30. The test plants are afterwards cultivated in a greenhouse under optimum conditions. The phytotoxic action of the herbicide on the maize (percentage phytotoxicity) is evaluated after a test duration of 22 days.

CCc1cccc(C)c1N(C(=O)CCl)[C@@H](C)COC [formula I, aRS,1′S(−)N-(1′-methyl-2′-methoxyethyl)-N-chloracetyl-2-ethyl-6-methylaniline]
% Phytotoxicity (herbicide of formula I 4000 g/ha, greenhouse): 65% | % Phytotoxicity (series b), herbicide of formula I 2000 g/ha (so in the source)): 55% | % Phytotoxicity (series c), herbicide of formula I 2000 g/ha): 25%
